{"source": "patent US20250122253A1", "about": "“REGULATING MICROTUBULE DYNAMICS AS A THERAPEUTIC TARGET FOR NERVE REPAIR” (City University of Hong Kong, priority 2023, published 2025)", "system": "gait movement", "assay": "Sciatic functional index (SFI) walking track analysis", "assay_type": "in vivo, mice", "conditions": "15 days post-injury", "description": "Adult male Fmn2^−/− mice (8-12 weeks old) and their age-matched WT littermates, or adult male C57BL/6 mice (for whole-body X-ray, AAV2/9-Fmn2-shRNA and metaxalone experiments) were trained and habituated one week before the sciatic nerve crush injury. After three independent training sessions (30 minutes per session with two days break), baseline values were taken, and sciatic nerve crush injury were performed one day after the baseline recordings. Function recovery was monitored for 30 days. On day 3 after the sciatic nerve crush, we first perform pinprick assay and followed by motor function assays every other day in a sequential manner (toe spreading, grip strength, and sciatic functional index) with 30 mins apart from each test. Animal behavioural tests were done blinded to the surgery and genotypes.\nThe walking track analysis was performed by training the mice to walk down a narrow corridor covered with white paper strip (10×60 cm) and the hindlimbs of the mice were pained with red water colour. […] The SFI values were calculated from footprints as follows: • […](experimental print length−naïve print length)/naïve print length+109.5×(experimental toe spread−naïve toe spread)/naïve toe spread+13.3×(experimental intermediary toe spread−naïve intermediary toe spread)/naïve intermediary toe spread−8.8. […]", "data": [{"smiles": "Cc1cc(C)cc(OCC2CNC(=O)O2)c1", "note": "(centres unmarked) [metaxalone]", "values": [{"measurement": "increase of average SFI compared with SFI values at day 3 post-injury", "setting": "treated immediately", "result": 73.0, "unit": "%"}, {"measurement": "increase of average SFI compared with SFI values at day 3 post-injury, delayed treatment", "setting": "treatment delayed by 24 hours", "result": 71.4, "unit": "%"}]}]}
